Measurements published in ChEMBL document CHEMBL4118222, “Synthesis of C-ring-modified blebbistatin derivatives and evaluation of their myosin II ATPase inhibitory potency” (Bioorg Med Chem Lett, 2018).
pIC50: −log10 of the molar value. The source made the active and inactive calls. The calls are words filed in the database; no cut-off is given here.

Key:
[1] = species on record: Oryctolagus cuniculus; assay: Inhibition of rabbit skeletal muscle myosin 2 ATPase in presence of F-actin at 100 uM after 1 hr
[2] = Inhibition of rabbit skeletal muscle myosin 2 ATPase in presence of F-actin after 1 hr; parameters: species or system Oryctolagus cuniculus

| inhibition [1] | pIC50 [2] | Structure (SMILES) |
| --- | --- | --- |
| inactive |  | C=CCOCC1CC2(O)C(=O)c3cc(C)ccc3N=C2N1c1ccccc1 (mixture of isomers) |
| inactive |  | Cc1ccc2c(c1)C(=O)[C@]1(O)C[C@@H](CO)N(c3ccccc3)C1=N2 (racemic) |
|  | 4.12 | Cc1ccc2c(c1)C(=O)[C@]1(O)C[C@H](CO)N(c3ccccc3)C1=N2 (racemic) |
|  | 6.02 | Cc1ccc2c(c1)C(=O)[C@]1(O)CCN(c3ccccc3)C1=N2 |
